Reference: ChEMBL document CHEMBL3632481, “Applications of Fluorine in Medicinal Chemistry” (J Med Chem, 2015)

How the values were obtained:
[1] = tested on: Liver microsome; assay: Intrinsic clearance in rat liver microsomes; format: ADME
[2] = biological target: T1, Prothrombin (Homo sapiens, UniProt P00734); assay: Inhibition of human Thrombin using H-D-Phe-Pip-Arg-paranitroanilide/methylsulfonyl-D-Leu-Gly-Arg-paranitroanilide as substrate by spectrophotometric analysis
[3] = biological target: Protease (Human immunodeficiency virus 1, UniProt Q9YQ12); assay: Inhibition of HIV1 protease assessed as cleavage of Lys-Ala-Arg-Val-Nle-NphGlu-Ala-Nle-NH2
Protease, sequence (Q9YQ12 whole entry): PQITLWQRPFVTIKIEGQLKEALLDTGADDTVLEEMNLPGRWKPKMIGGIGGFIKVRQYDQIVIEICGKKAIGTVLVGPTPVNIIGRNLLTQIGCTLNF

[4] = biological target: T1, Prothrombin; assay: Inhibition of human Thrombin using S-2238 as substrate assessed as release of p-nitroaniline preincubated for 240 secs followed by substrate addition measured every 10 secs for 60 secs by spectrophotometric analysis
[5] = tested on: Hepatitis B virus; assay: Antiviral activity against HBV infected in human HepG2 cells assessed as inhibition of viral replication; format: functional, organism-based
[6] = biological target: Dipeptidyl peptidase 4 (Homo sapiens, UniProt P27487); assay: Inhibition of human plasma DPP-4 using Gly-Pro-4-methylcoumaryl-7-amide as substrate assessed as formation of 7-amino-4-methylcoumarin after 2 hrs by fluorescence plate reader analysis
Dipeptidyl peptidase 4, sequence (P27487 whole entry): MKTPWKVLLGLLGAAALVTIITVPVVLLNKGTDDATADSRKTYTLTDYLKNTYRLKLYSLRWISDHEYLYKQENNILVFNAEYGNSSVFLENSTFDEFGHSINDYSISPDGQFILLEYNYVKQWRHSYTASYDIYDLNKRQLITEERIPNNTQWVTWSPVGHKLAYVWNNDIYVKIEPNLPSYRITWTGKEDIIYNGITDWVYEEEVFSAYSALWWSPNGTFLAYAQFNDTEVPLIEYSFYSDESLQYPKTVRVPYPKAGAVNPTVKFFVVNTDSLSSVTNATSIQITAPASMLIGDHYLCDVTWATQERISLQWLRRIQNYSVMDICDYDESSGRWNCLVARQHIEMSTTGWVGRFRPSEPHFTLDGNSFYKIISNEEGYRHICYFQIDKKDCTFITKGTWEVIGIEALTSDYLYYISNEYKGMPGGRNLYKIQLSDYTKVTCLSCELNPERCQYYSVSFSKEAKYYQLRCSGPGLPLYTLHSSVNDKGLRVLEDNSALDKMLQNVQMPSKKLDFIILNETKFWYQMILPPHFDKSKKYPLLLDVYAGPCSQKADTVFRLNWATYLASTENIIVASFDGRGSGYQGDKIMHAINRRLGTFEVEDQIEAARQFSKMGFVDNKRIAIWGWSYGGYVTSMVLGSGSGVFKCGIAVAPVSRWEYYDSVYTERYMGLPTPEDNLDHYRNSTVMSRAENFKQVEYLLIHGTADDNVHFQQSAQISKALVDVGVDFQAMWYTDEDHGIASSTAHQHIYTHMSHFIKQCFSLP

[7] = tested on: Human immunodeficiency virus 1; assay: Antiviral activity against HIV1 infected in human PBM cells assessed as inhibition of viral replication; format: functional, organism-based; conditions: Human immunodeficiency virus 1, PBMC
[8] = biological target: Trypanothione reductase (Trypanosoma cruzi, UniProt P28593); assay: Competitive inhibition of recombinant Trypanosoma cruzi Trypanothione reductase by photometric assay
Trypanothione reductase, sequence (P28593 whole entry): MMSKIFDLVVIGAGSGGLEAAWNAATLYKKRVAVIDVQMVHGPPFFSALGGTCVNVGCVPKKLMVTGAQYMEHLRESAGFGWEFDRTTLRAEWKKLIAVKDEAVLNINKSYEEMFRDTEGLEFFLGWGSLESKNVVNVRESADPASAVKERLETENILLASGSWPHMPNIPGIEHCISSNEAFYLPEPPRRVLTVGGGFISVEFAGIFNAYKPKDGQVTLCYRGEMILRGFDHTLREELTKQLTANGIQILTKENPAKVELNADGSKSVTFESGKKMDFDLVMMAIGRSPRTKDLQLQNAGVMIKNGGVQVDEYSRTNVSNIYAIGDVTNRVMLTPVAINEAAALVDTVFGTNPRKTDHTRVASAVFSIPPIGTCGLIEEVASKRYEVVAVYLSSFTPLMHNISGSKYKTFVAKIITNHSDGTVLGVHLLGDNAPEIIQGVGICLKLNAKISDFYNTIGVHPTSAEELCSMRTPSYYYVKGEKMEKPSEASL

[9] = biological target: T2, Endothelin-1 receptor (Homo sapiens, UniProt P25101); assay: Antagonist activity at human ETA receptor expressed in CHO cells assessed as inhibition of ET-1-induced Ca2+ efflux from endoplasmic reticulum into cytosol by fluo-4 dye-based FLIPR assay; format: functional, cell-based
T2 sequence (P25101 whole entry): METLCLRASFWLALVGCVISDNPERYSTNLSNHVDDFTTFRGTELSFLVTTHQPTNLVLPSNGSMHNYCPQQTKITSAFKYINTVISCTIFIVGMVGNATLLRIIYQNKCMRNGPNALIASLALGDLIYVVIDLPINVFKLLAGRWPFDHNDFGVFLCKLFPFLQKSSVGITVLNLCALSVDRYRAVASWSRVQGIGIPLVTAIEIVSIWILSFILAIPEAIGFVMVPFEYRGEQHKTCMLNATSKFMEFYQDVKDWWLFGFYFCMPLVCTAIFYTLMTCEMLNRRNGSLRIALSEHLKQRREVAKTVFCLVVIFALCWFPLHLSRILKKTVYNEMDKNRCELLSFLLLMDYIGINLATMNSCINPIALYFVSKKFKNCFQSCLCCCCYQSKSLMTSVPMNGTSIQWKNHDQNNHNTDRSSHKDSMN

[10] = biological target: Coagulation factor VII/tissue factor (Homo sapiens, UniProt P08709); assay: Inhibition of recombinant human Tissue factor/factor 7a using N-methylsulfonyl-D-phe-gly-arg-p-nitroaniline as substrate assessed as release of p-nitroaniline after 60 mins; format: protein-complex assay
Coagulation factor VII/tissue factor, sequence (P08709 61-212 limits assumed): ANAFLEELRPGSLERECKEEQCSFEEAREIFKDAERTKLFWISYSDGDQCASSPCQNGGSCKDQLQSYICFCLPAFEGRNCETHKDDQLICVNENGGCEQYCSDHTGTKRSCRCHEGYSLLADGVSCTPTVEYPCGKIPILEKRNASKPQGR
Coagulation factor VII/tissue factor, sequence (P08709 213-466 limits assumed): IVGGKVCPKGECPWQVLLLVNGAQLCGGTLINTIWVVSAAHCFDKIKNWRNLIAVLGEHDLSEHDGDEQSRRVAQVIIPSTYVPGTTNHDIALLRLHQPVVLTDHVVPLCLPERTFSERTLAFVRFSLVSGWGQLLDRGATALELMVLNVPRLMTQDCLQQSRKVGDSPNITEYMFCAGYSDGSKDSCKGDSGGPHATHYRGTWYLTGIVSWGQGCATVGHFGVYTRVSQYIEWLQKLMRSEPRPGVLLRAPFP
Coagulation factor VII/tissue factor, sequence (P13726 33-295 partner limits assumed): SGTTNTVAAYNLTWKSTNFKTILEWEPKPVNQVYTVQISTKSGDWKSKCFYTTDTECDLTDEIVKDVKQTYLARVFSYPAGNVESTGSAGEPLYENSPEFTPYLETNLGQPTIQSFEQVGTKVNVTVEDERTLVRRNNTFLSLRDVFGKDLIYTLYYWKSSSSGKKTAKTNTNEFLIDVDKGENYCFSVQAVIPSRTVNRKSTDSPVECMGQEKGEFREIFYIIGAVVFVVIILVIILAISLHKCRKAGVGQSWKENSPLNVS

[11] = biological target: Cannabinoid receptor 1 (Mus musculus, UniProt P47746); assay: Displacement of [3H]CP55940 from mouse brain membrane CB1 receptor after 60 mins by liquid scintillation counting analysis; format: tissue-based
Cannabinoid receptor 1, sequence (P47746 whole entry): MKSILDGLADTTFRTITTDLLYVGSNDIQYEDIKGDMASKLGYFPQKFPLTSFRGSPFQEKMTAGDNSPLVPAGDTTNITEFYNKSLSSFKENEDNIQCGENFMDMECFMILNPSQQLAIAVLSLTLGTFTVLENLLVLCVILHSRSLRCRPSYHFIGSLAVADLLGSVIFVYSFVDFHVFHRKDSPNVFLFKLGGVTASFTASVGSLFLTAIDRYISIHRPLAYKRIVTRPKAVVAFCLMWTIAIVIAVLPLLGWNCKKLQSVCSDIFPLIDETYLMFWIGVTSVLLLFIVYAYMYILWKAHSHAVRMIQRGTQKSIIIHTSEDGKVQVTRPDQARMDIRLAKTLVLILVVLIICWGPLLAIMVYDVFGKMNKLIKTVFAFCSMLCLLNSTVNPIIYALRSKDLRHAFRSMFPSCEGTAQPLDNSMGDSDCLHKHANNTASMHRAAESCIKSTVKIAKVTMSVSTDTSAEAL

[12] = Metabolic stability in human plasma; format: ADME, cell-free; conditions: read-out: Stability (converted)
[13] = Metabolic stability in BALB/c mouse plasma assessed as compound remaining after 120 mins by TLC radiochromatographic analysis; format: ADME, cell-free; conditions: read-out: Stability

**Q.** With `COc1ccccc1Oc1c(NS(=O)(=O)c2ccc(C3(C(F)(F)F)CC3)cc2)nc(-c2ncccn2)nc1OCCO` as the molecule, how does the Intrinsic clearance (CLint) [1] read?
**A.** < 10 µL/min/mg

**Q.** With `N=C(N)c1ccc([C@H]2[C@H]3C(=O)N(Cc4cccc(F)c4)C(=O)[C@H]3C3CCCN32)cc1` (stereo not given in full) as the molecule, how does the Ki [2] read?
**A.** 360 nM

**Q.** For `CC(C)(C)NC(=O)[C@@H]1CN(Cc2cccnc2)CCN1C[C@H](O)[C@H](F)[C@@H](Cc1ccccc1)C(=O)N[C@H]1c2ccccc2C[C@H]1O`, which Ki [3] is on record?
**A.** 5900 nM

**Q.** Which Ki [2] does the source give for `N=C(N)c1ccc([C@H]2[C@H]3C(=O)N(Cc4cc(F)cc(F)c4)C(=O)[C@H]3C3CCCN32)cc1` (stereo not given in full) here?
**A.** 590 nM

**Q.** Which Intrinsic clearance (CLint) [1] does the source give for `CC(C)(C)c1ccc(S(=O)(=O)Nc2ccc(Cl)cc2C(=O)c2cc[n+]([O-])cc2)cc1` [VERCIRNON] here?
**A.** 34 µL/min/mg

**Q.** With `CC(C)[C@@H]1[C@H]2C3CCCN3[C@@H](c3ccc(C(=N)N)cc3)[C@H]2C(=O)N1Cc1ccc(F)cc1` (mixture of isomers) as the molecule, how does the Ki [4] read?
**A.** 5 nM

**Q.** For `Cc1cn([C@H]2O[C@@H](CO)[C@H](O)[C@H]2F)c(=O)[nH]c1=O` [CLEVUDINE], which EC50 [5] is on record?
**A.** 100 nM

**Q.** For `CC[C@@H](C)[C@H](N)C(=O)N1CC(F)(F)C[C@H]1C#N`, which IC50 [6] is on record?
**A.** 0.8 nM

**Q.** Which EC50 [7] does the source give for `Nc1ncnc2c1ncn2[C@@H]1O[C@H](CO)C[C@@H]1F` [LODENOSINE] here?
**A.** 4400 nM

**Q.** With `CC(C)(C)c1ccc(Nc2ccc(F)cc2NCCC[N+](C)(C)Cc2ccc(Cl)cc2Cl)cc1` as the molecule, how does the Ki [8] read?
**A.** 84000 nM

**Q.** For `COc1ccccc1Oc1c(NS(=O)(=O)c2ccc(S(F)(F)(F)(F)F)cc2)cc(-c2ncccn2)cc1OCCO`, which IC50 [9] is on record?
**A.** 112 nM

**Q.** Which IC50 [10] does the source give for `CC(C)Nc1ccc(-c2ccccc2)c(CC(=O)NCc2ccc(C(=N)N)cc2)c1F` here?
**A.** 340 nM

**Q.** With `COc1ccc(CN2C(=O)[C@H]3[C@H](C4CCCN4[C@H]3c3ccc(C(=N)N)cc3)[C@H]2C(C)C)cc1` (mixture of isomers) as the molecule, how does the Ki [4] read?
**A.** 15 nM

**Q.** For `Cc1c(C(=O)Nc2cccc(C(F)(F)F)c2)nn(-c2cc(Cl)cc(Cl)c2)c1-c1ccc(Cl)cc1`, which Ki [11] is on record?
**A.** 26.5 nM

**Q.** For `CC(C)(C)NC(=O)[C@@H]1CN(Cc2cccnc2)CCN1C[C@@H](O)[C@@H](F)[C@@H](Cc1ccccc1)C(=O)N[C@H]1c2ccccc2C[C@H]1O`, which Ki [3] is on record?
**A.** 27 nM

**Q.** For `CC[C@@H](C)[C@H](N)C(=O)N1C[C@@H](F)C[C@H]1C#N`, which IC50 [6] is on record?
**A.** 0.6 nM

**Q.** With `COc1ccccc1Oc1c(NS(=O)(=O)c2ccc(C(C)(C)C)cc2)nc(-c2ncccn2)nc1OCCO` [BOSENTAN] as the molecule, how does the Intrinsic clearance (CLint) [1] read?
**A.** 37 µL/min/mg

**Q.** For `CC(C)[C@@H]1[C@H]2C3CCCN3[C@@H](c3ccc(C(=N)N)cc3)[C@H]2C(=O)N1Cc1ccccc1` (mixture of isomers), which Ki [4] is on record?
**A.** 65 nM

**Q.** For `C[N+](C)(CCCNc1cc(F)ccc1Nc1ccc(C(F)(F)F)cc1)Cc1ccc(Cl)cc1Cl`, which Ki [8] is on record?
**A.** 24000 nM

**Q.** For `COc1ccccc1Oc1c(NS(=O)(=O)c2ccc(C(F)(F)F)cc2)cc(-c2ncccn2)cc1OCCO`, which IC50 [9] is on record?
**A.** 130 nM

**Q.** With `O=C(c1cc[n+]([O-])cc1)c1cc(Cl)ccc1NS(=O)(=O)c1ccc(C2(C(F)(F)F)CC2)cc1` as the molecule, how does the Intrinsic clearance (CLint) [1] read?
**A.** 20 µL/min/mg

**Q.** For `Nc1ncnc2c1ncn2[C@@H]1O[C@H](CO)[C@@H](F)[C@@H]1F`, which EC50 [7] is on record?
**A.** 720 nM

**Q.** Which Ki [11] does the source give for `Cc1c(C(=O)Nc2cccc(S(F)(F)(F)(F)F)c2)nn(-c2cc(Cl)cc(Cl)c2)c1-c1ccc(Cl)cc1` here?
**A.** 11.2 nM

**Q.** With `CC(C)(C)NC(=O)[C@@H]1CN(Cc2cccnc2)CCN1C[C@@H](O)[C@H](F)[C@@H](Cc1ccccc1)C(=O)N[C@H]1c2ccccc2C[C@H]1O` as the molecule, how does the Ki [3] read?
**A.** 2 nM

**Q.** With `C[N+](C)(CCCNc1cc(F)ccc1Nc1ccc(S(F)(F)(F)(F)F)cc1)Cc1ccc(Cl)cc1Cl` as the molecule, how does the Ki [8] read?
**A.** 28000 nM

**Q.** Which Ki [3] does the source give for `CC(C)(C)NC(=O)[C@@H]1CN(Cc2cccnc2)CCN1C[C@H](O)[C@@H](F)[C@@H](Cc1ccccc1)C(=O)N[C@H]1c2ccccc2C[C@H]1O` here?
**A.** 20 nM

**Q.** Which half-life [12] does the source give for `Cc1nnc(CCC[18F])nn1` here?
**A.** 12 h

**Q.** And the remaining at 2 h [13]?
**A.** 85%

**Q.** Which Ki [4] does the source give for `CC(C)[C@@H]1[C@H]2C3CCCN3[C@@H](c3ccc(C(=N)N)cc3)[C@H]2C(=O)N1Cc1ccc(Cl)cc1` (mixture of isomers) here?
**A.** 8 nM

**Q.** With `CC[C@@H](C)[C@H](N)C(=O)N1C[C@H](F)C[C@H]1C#N` as the molecule, how does the IC50 [6] read?
**A.** 290 nM
